Test results taken from US10342837B2, “Extracts and compositions of helichrysum odoratissimum for preventing and treating skin cancers” (University of Pretoria, priority 2013, dated 2019).
Values after ≈ are worked out from the molar mass of the structure shown. Numbered stars: 1 amine (or outer) side, 2 acyl side, 3 side chain; on linkers, the order of the positions; unused ones are H or OH. Bridge positions count the residues as written; N and C are the ends. Square brackets hold non-standard residues; d marks the D form. Peptide text beside a SMILES is read from it. I, II: the chains in the order shown. Actinocin(9to1) = Cc1c2oc3c(C)ccc(C(=O)[*:1])c3nc-2c(C(=O)[*:2])c(N)c1=O; NMeV = CN[C@H](C(=O)O)C(C)C; Sar = CNCC(=O)O

What was measured:
Format in all cases: cell-based
A431 cells = assay: Light microscopy, haematoxylin and eosin staining of A431 cells (apoptosis); conditions: 0.025 μg/ml, 72 h exposure
Description: The specific concentrations of extract were chosen due to the anti-proliferative activity that was observed. Exponentially growing cells were seeded at 100,000 cell per well in 6-well plates on heat-sterilized coverslips. After 24 h incubation at 37° C. and 5% […] for cell adherence, cells were exposed to 15 μg/ml, 30 μg/ml and 7.5 μg/ml of H. odoratissimum extract including vehicle-treated control cells (2% DMSO); cells propagate in growth medium, as well as 0.025 μg/ml Actinomycin D and incubated for 72 h at 37° C. Cells were then fixed in Bouin's fixative for 30 min and stained by standard haematoxylin and eosin staining procedures (Stander et al. 2009).
The influence of H. odoratissimum was compared to a medium control, vehicle-treated control and Actinomycin D (FIG. 3).

U937 cells [1] = assay: Cytotoxicity on U937 cells; conditions: U937 cells
From the text: (§1) The cytotoxicity of the H. odoratissimum extract was first analyzed on the U937 cells to determine IC50 values at which the extract could be tested when evaluating the cytokine profile and to ensure that the concentrations of phytohemagglutinin (PHA) and pentoxifylline, used to determine the cytokine profile, was not toxic to the U937 cells.

IL-12 = IL-12 production in U937 cells (ELISA); conditions: for production of IL-12 of the controls compared to the medium control (in words): PHA at 5 μg/ml, pentoxifylline at 20 μg/ml
Description: (§2) The levels of cytokine production (IL-8 and IL-12) from cell supernatants were measured by enzyme-linked immunosorbent assay (ELISA) according to the manufacturer's protocol (BD Biosciences, San Diego, Calif., USA). The levels of IL-12 were determined as it was reported to act as a potential anti-tumour agent (Brunda et al. 1993). IL-8 was measured as it plays a major role in the progression of various cancer cells by invasion, migration, adhesion, proliferation (Kuai et al. 2012). Briefly U937 cells were plated at a concentration of 2.5×10^5 cell per well in a 24-well plate. The cells were incubated for 24 h with 0.1 μg/ml PMA at 37° C. and 5% CO2 to allow the monocytes to differentiate into macrophages. The cells were treated with various concentrations of H. odoratissimum extracts. Controls included 20 μg/ml pentoxifylline, 5 μg/ml phytohemagglutinin (PHA), as well as vehicle-treated control cells (1% DMSO) and a medium only control. The cells were incubated for a further 20 hrs and thereafter centrifuged at 980 rpm for 5 min to collect the cell free supernatant and analyse the concentration of IL-8 and IL-12.
(§3) H. odoratissimum was analyzed at 20 μg/ml, 15 μg/ml, 10 μg/ml and 5 μg/ml to determine whether the extract was able to induce the production of IL-12 and inhibit the production of IL-8 in phytohemagglutinin (PHA) stimulated U937 cells, the results of which are depicted in Table 2.

IL-8 = IL-8 production in U937 cells (ELISA)
Description: as §2, with “The cells were incubated for a further 20 hrs and thereafter centrifuged at 980 rpm for 5 min to collect the cell free supernatant and analyse the concentration of IL-8 and IL-12.” left out
as §3

U937 cells [2] = assay: Cell viability of U937 cells in cytokine production test; conditions: sample at 5 μg/ml; U937 cells
Description: as §2, with “The cells were incubated for a further 20 hrs and thereafter centrifuged at 980 rpm for 5 min to collect the cell free supernatant and analyse the concentration of IL-8 and IL-12.” left out
as §3

[3] = Cytotoxicity on U937 cells; conditions: human
From the text: as §1

[4] = Cell viability of U937 cells in cytokine production test; conditions: human
Description: as §2, with “The cells were incubated for a further 20 hrs and thereafter centrifuged at 980 rpm for 5 min to collect the cell free supernatant and analyse the concentration of IL-8 and IL-12.” left out
as §3

Row | Compound | A431 cell morphology (in words) (A431 cells) | IC50 (in μg/ml), cytotoxicity on U937 cells (U937 cells [1]) | production of IL-12 of the controls compared to the medium control (in words) (IL-12) | IL-12 (IL-12; sample at 5 μg/ml) | IL-8 (IL-8; sample at 5 μg/ml) | Cell viability in % (U937 cells [2]) | IC50 [3] | IL-12 (IL-12; sample at 20 μg/ml) | IL-8 (IL-8; sample at 20 μg/ml) | viability at 20 h, 20 μg/ml [4]
1 | Cc1c2oc3c(C)ccc(C(=O)N[C@@H]4C(=O)N[C@H](C(C)C)C(=O)N5CCC[C@H]5C(=O)N(C)CC(=O)N(C)[C@@H](C(C)C)C(=O)O[C@@H]4C)c3nc-2c(C(=O)N[C@@H]2C(=O)N[C@H](C(C)C)C(=O)N3CCC[C@H]3C(=O)N(C)CC(=O)N(C)[C@@H](C(C)C)C(=O)O[C@@H]2C)c(N)c1=O [Actinomycin D] (I: T[dV]P[Sar][NMeV] / II: T[dV]P[Sar][NMeV]; ester I:1-I:C, II:1-II:C; linker I:N-II:N via Actinocin(9to1)) | a great amount of cell death and total loss of cell viability | – | – | – | – | – | – | – | – | –
2 | phytohemagglutinin [PHA] | – | 318 ± 7.8 µg/mL | increase in IL-12 | 9.49 ± 3.8 pg/mL | 107 ± 5.6 pg/mL | 101% ± 0.3 | – | – | – | –
3 | CC(=O)CCCCn1c(=O)c2c(ncn2C)n(C)c1=O [Pentoxifylline, pentoxifylline] | – | – | inhibition | – | – | – | 170 ± 6.4 µg/mL (≈ 611 µM) | 1.37 ± 0.9 pg/mL | 51.2 ± 7.2 pg/mL | 106%
